Consider 14 compounds from patent publication US10907197B2, “Probes for imaging huntingtin protein” (CHDI Foundation, Inc., priority 2014, dated 2021).

A value given as a limit tells only on which side of the number the result lay.

The term IC50 denotes the midpoint of a concentration-inhibition curve. Low readings indicate greater potency in that assay, high ones weaker potency in that assay.

The first test deals with NFT in sections of AD brain tissue.
Experiment: not given
The note with it: cited from earlier work.
Turning to `CN(C)c1ccc(/C=C/c2nc3ccc(I)cc3[nH]2)cc1` [SBIM-3, 4-[(E)-2-(6-iodo-1H-benzimidazol-2-yl)ethenyl]-N,N-dimethylaniline], the “binding to NFT” value was “bound NFT in sections of AD brain tissue”.

In another test the target is T1, Q46 protein aggregates (Homo sapiens, UniProt P42858, INS38QQQQQQQQQQQQQQQQQQQQQQQQQ).
T1 construct: 33 μM GST-Q46 was incubated with 150 μg/mL thrombin in assay buffer (150 mM NaCl, 50 mM Tris pH 8.0) and 2 mM CaCl2 for 16 hr at 37° C; fused on or other part: GST at the N-terminus
T1 sequence (P42858 with tags, fused parts or gaps with the stated changes): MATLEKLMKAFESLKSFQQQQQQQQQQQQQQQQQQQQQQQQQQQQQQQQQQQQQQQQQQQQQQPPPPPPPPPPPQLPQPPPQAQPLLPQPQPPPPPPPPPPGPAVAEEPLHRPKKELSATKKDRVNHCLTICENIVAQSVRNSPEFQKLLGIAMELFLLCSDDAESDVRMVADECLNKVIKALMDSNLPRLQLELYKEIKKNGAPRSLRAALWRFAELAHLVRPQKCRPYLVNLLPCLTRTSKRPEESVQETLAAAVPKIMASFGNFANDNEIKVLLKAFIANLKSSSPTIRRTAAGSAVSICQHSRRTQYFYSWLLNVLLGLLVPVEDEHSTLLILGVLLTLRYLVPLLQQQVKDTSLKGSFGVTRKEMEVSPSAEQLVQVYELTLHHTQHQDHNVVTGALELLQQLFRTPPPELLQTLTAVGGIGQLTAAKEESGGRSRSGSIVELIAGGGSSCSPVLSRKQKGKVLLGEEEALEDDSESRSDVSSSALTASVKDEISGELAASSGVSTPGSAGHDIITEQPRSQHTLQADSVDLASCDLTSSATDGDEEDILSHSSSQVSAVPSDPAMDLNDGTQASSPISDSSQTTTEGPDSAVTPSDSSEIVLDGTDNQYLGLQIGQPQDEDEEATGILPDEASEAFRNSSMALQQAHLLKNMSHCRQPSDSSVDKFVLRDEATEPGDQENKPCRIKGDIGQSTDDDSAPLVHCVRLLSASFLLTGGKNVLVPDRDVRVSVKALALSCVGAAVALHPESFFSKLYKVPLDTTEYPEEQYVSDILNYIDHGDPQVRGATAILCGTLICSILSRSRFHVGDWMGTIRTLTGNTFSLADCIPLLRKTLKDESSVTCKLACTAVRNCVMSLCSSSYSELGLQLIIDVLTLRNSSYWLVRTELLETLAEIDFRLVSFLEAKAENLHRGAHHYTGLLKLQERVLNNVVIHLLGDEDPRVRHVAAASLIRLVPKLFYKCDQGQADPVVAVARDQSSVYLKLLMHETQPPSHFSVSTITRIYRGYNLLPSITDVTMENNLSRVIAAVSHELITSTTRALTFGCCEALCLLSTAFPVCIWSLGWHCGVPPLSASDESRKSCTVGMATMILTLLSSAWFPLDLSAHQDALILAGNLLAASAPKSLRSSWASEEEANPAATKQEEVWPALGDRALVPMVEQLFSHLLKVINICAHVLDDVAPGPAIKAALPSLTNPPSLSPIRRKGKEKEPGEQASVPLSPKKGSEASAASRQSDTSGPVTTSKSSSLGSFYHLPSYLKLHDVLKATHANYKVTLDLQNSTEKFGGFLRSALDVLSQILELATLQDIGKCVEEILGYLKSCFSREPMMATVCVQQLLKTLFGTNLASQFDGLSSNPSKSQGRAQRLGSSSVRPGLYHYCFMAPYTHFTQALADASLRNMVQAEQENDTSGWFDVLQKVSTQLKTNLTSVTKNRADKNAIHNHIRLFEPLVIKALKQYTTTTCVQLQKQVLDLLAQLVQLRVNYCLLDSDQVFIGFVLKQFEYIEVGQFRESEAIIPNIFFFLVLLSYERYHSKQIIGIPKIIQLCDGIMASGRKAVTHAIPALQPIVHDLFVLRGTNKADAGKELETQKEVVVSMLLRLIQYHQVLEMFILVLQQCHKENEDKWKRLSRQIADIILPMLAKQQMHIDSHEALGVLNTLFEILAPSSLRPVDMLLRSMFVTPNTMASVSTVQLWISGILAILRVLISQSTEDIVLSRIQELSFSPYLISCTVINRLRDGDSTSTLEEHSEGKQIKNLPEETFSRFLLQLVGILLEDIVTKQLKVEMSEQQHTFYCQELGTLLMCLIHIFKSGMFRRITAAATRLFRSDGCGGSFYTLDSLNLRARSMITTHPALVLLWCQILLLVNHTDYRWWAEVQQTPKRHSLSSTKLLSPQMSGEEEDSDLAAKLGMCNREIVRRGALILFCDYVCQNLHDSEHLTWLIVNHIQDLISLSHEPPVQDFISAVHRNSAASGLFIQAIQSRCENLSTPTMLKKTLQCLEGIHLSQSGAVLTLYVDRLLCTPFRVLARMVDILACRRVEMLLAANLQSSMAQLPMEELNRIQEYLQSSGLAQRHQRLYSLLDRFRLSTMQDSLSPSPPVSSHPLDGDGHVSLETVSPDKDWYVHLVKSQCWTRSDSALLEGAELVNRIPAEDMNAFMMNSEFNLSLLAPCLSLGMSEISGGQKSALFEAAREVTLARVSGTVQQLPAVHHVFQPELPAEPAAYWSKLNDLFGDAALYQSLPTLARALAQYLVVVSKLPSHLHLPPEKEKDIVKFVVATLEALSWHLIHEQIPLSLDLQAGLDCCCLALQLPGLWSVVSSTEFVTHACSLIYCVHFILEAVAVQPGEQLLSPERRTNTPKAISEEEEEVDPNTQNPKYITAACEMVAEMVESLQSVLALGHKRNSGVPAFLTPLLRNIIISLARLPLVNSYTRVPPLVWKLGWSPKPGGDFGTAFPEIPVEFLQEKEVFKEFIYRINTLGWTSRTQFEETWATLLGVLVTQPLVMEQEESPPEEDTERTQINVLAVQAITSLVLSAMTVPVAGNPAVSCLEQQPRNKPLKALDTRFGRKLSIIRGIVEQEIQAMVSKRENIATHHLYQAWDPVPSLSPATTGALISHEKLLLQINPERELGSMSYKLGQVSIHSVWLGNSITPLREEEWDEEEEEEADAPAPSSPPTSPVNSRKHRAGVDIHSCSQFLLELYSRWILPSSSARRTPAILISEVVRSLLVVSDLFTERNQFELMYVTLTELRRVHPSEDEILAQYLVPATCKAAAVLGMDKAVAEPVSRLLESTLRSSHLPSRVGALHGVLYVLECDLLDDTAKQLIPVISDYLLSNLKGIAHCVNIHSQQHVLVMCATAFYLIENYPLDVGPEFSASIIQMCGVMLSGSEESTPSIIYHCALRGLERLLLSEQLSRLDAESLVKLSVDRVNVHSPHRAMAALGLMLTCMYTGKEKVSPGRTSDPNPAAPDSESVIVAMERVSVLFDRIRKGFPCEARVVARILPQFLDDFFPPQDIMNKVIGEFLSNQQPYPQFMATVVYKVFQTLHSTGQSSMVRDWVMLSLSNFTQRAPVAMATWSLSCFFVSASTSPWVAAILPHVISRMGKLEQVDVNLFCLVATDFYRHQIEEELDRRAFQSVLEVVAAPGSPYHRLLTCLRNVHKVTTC
The test can be described thus: Q46 Radioligand Binding Assay (RBA). The note with it: displacement of 10 nM [3H3]MK-3328 from 5 μM Q46 protein aggregates, 60 min at 37° C. How it is done:
Q46 Radioligand Binding Assay
For radioligand binding assays (RBA) GST-Q46 protein was generated based on a previous publication (Scherzinger et al. Cell, Vol. 90, 549-558, Aug. 8, 1997). For experiments 33 μM GST-Q46 was incubated with 150 μg/mL thrombin in assay buffer (150 mM NaCl, 50 mM Tris pH 8.0) and 2 mM CaCl2 for 16 hr at 37° C. Aggregated Q46 was pelleted by centrifugation for 5 min at 13,000 rpm in a bench top centrifuge and re-dissolved in the same volume of assay buffer. Test compounds were prepared by titration in DMSO at 11 concentrations from 33 μM to 1 nM. For the RBA, Q46 protein aggregates and test compounds were pre-incubated in assay buffer for 20 min at room temperature, in 140 μL/well in a 96-well plate (pp, round bottom). Then, ligand was added in 10 μL/well and incubated for 60 min at 37° C. Final assay concentrations were 1 μM to 30 pM test compound, 5 μM Q46 protein (equivalent monomer concentration) and 10 nM ligand [^3H3]MK-3328 (Harrision et al., ACS Med. Chem. Lett., 2 (2011), pp 498-502). Samples were transferred onto GF/B filter plates and washed 2× with 200 μL PBS using a Filtermate Harvester. After drying filter plates for 1 hr at 37° C., the back of the plates was sealed with foil and 30 μL/well scintillation fluid (Packard MicroScint 40) was added, incubated for incubated for 15 min in the dark and counted in a TopCount reader. […] IC50 values were determined with a sigmoidal inhibition model with four variables (top, bottom, slope, IC50) in a global fit using the normalized replicate data.
As for `COc1cc2cc(-c3ccncc3C#N)oc2cn1` [4-{5-methoxyfuro[2,3-c]pyridin-2-yl}pyridine-3-carbonitrile], the IC50 was < 100 nM.

As for `COc1cnc2cc(-c3ccncc3C#N)oc2c1` [4-{6-methoxyfuro[3,2-b]pyridin-2-yl}pyridine-3-carbonitrile], the IC50 is < 100 nM.

For `COc1ccc2oc(-c3ccc(Br)cc3C#N)cc2c1` [5-bromo-2-(5-methoxy-1-benzofuran-2-yl)benzonitrile], the IC50 is < 100 nM.

On to `O=c1[nH]cc(Br)cc1-c1cc2cc(Br)cnc2o1` [5-bromo-3-{5-bromofuro[2,3-b]pyridin-2-yl}-1,2-dihydropyridin-2-one], for which the IC50 is < 100 nM.

With `COc1ccc2oc(-c3ccncc3)c(C#N)c2c1` [5-methoxy-2-(pyridin-4-yl)-1-benzofuran-3-carbonitrile], the IC50 was < 100 nM.

For the compound `COc1ccc2oc(-c3ccc(C#N)cn3)cc2c1` [6-(5-methoxy-1-benzofuran-2-yl)pyridine-3-carbonitrile], the IC50 was < 100 nM.

In turn, `COc1ccc2nc(-c3ccccc3OC)sc2c1` [6-methoxy-2-(2-methoxyphenyl)-1,3-benzothiazole] had an IC50 of 100 to 500 nM.

Compound `COc1ccc2nc(-c3cccnc3)oc2c1` [6-methoxy-2-(pyridin-3-yl)-1,3-benzoxazole] gave an IC50 of 100 to 500 nM.

`COc1ccc2nc(-c3ccncc3-c3ccn[nH]3)sc2c1` [6-methoxy-2-[3-(1H-pyrazol-5-yl)pyridin-4-yl]-1,3-benzothiazole]: the IC50 lay within 100 to 500 nM.

Regarding `COc1ccc2oc(-c3cccc4cn[nH]c34)cc2c1` [7-(5-methoxy-1-benzofuran-2-yl)-1H-indazole], the IC50 is < 100 nM.

Regarding `COc1ccc2nc(-c3ccncc3NC(C)=O)sc2c1` [N-[4-(6-methoxy-1,3-benzothiazol-2-yl)pyridin-3-yl]acetamide], the IC50 is < 100 nM.

Consider `COc1ccc2oc(-c3cccc(NC(C)=O)n3)cc2c1` [N-[6-(5-methoxy-1-benzofuran-2-yl)pyridin-2-yl]acetamide], for which the IC50 was < 100 nM.

As for `OCc1ccc2oc(-c3cccnc3)nc2c1` [[2-(pyridin-3-yl)-1,3-benzoxazol-5-yl]methanol], the IC50 was > 500 nM.

For another test, the system named is recombinant tau and amyloid β1-42 (Aβ1-42) aggregates.
Experiment: not given
The note with it: higher affinity for the tau aggregates than Aβ1-42 aggregates; cited from earlier work.
`CN(C)c1ccc(/C=C/c2nc3ccc(I)cc3[nH]2)cc1` [SBIM-3, 4-[(E)-2-(6-iodo-1H-benzimidazol-2-yl)ethenyl]-N,N-dimethylaniline]: the “ratio of Kd values” was 2.73.
